Data published in patent publication US20150296765A1, “DEVICE FOR SPRAYING POWDERY CHEMICAL AGENT AND PROCESS FOR SPRAYING POWDERY CHEMICAL AGENT” (EARTH CHEMICAL CO., LTD., priority 2012, published 2015).
Like-named read-outs stand apart in the source and are kept apart here.

Legend:
[1] = system: Smoky-brown cockroaches; details: for insect pest-controlling effect (in words): summary of Tables 5 and 6
Description: (§1) Contents of the test are as follows.
(§2) 1. A test plot having a floor area of about 9 m^2 (270 cm in length×340 cm in width×15 cm in height) as shown in FIG. 5 was set in the interior of a room of 470 cm in length×540 cm in width. The powdery chemical agent spraying device 1 in which the cylindrical body 23 is connected directly with a pump P is placed in the center of a test plot floor face 100; corrugated boxes (A), (B), and (C) each imitating a gap between a kitchen sink and a refrigerator are arranged near one side of the test plot floor face 100 (lower portion in FIG. 5); and a bait 101 and water 103 are arranged near the other side of the test plot floor face 100 (upper portion in FIG. 5). 2. Smoky-brown cockroaches are released on the test plot floor face 100 and habituated in the corrugated boxes (A), (B), and (C), and thereafter, the powdery chemical agent 30 is sprayed from the powdery chemical agent spraying device 1 in which a discharge port of the pump P set up at a pressure of 100 kPa is connected directly with the cylindrical body 23. (Number of test insects: 49 females and 48 males for dinotefura and 50 females and 49 males for d.d-T-cyphenothrin) 3. […] 4. A knockdown (KD) rate and a mortality rate at every passage of a time based on the count number are calculated.
Device in which the discharge port of the pump (rolling pump, manufactured by Okenseiko Co., Ltd.; two pumps of Model Nos. P30C02R8516 and M42C02R8516 coupled with each other) P is connected directly with the cylindrical body 23 (In order to confirm a breaking pressure of each of the sealing films 25 and 27, a pressure gauge G is placed therebetween.)
Cylindrical body 23: The same as the cylindrical body 23 used in the measuring test of falling amount of chemical agent on floor face of Example 1.
Sealing films 25 and 27: The same as the sealing films 25 and 27 used in the measuring test of falling amount of chemical agent on floor face of Example 1.
(§3) Corrugated boxes (A) and (B): Two holes (2 cm×2 cm) through which the cockroach can come and go are opened in front of a corrugated box of 50 cm in length×50 cm in width×25 cm in height.
(§4) Corrugated box (C): The front and the rear of a corrugated box of 50 cm in length×50 cm in width×3 cm in height are fully opened.

[2] = system: Smoky-brown cockroaches
Description: as §1
as §2, with “FIG. 4” for “FIG. 5”, “1” for “1 in which the cylindrical body 23 is connected directly with a pump P”, “FIG. 4);” for “FIG. 5);”, “FIG. 4).” for “FIG. 5).”, “2. 28 females and 29 males of smoky-brown” for “2. Smoky-brown”, “device 1. […]” for “device 1 in which a discharge port of the pump P set up at a pressure of 100 kPa is connected directly with the cylindrical body 23. (Number of test insects: 49 females and 48 males for dinotefura and 50 females and 49 males for d.d-T-cyphenothrin)”
Container body 11: PET bottle having a capacity of 280 mL
Cylindrical body 23: Acrylic pipe having an inside diameter of 7 mm and a length of 50 mm
Sealing film 25: Parafilm (trade name: […] M, 4 inch×125 feet)
Sealing film 27: Parafilm (trade name: […] M, 4 inch×125 feet)
The Parafilm was wound around each end part of the cylindrical body 23 to prepare the sealing films 25 and 27, respectively.
The Parafilm was wound without being stretched and adjusted such that a pressure at the time of breaking of each of the sealing films 25 and 27 was 100 kPa.
Sodium bicarbonate 41: 3.8 g
as §3, §4

In the case of CC(C)=CC1C(C(=O)OC(C#N)c2cccc(Oc3ccccc3)c2)C1(C)C (stereo not drawn) [d.d-T-cyphenothrin], the “insect pest-controlling effect (in words)” value [1] is reported as “a high insect pest-exterminating effect could be obtained”.

Work on CN/C(=N/CC1CCOC1)N[N+](=O)[O-] (stereo not drawn) [Chemical agent B, dinotefuran] yielded a KD and mortality ([1]; passage of time 2 hr) of 3%, a KD ([1]; passage of time 14.5 hr) of 43% and a KD and mortality ([1]; passage of time 14.5 hr) of 59%. For the same compound, the KD and mortality ([1]; passage of time 16 hr) was 71%, the KD and mortality ([1]; passage of time 23 hr) was 82% and the KD ([1]; passage of time 43 hr) was 18%. It also gave a KD and mortality ([1]; passage of time 43 hr) of 96%, a KD ([1]; passage of time 48 hr) of 15% and a KD and mortality ([1]; passage of time 48 hr) of 96%. The KD and mortality ([1]; passage of time […]) was 2%, the “insect pest-controlling effect (in words)” value [1] was “a high effectiveness is obtained” and the KD and mortality ([2]; passage of time 3 hr) was 2%. For the same compound, the KD and mortality ([2]; passage of time 6 hr) was 9%, the KD ([2]; passage of time 18 hr) was 25% and the KD and mortality ([2]; passage of time 18 hr) was 40%. For the same compound, the KD and mortality ([2]; passage of time 24 hr) was 88%, the KD ([2]; passage of time 32 hr) was 9% and the KD and mortality ([2]; passage of time 32 hr) was 95%. The KD ([2]; passage of time 48 hr) was 7% and the KD and mortality ([2]; passage of time 48 hr) was 96%.
